# Source: PubChem BioAssay AID1963963 (Molecular Pharmacology Branch, DTP, NCI, 2024)
# Tested on: 958667-338-R-J2-PDC tumor spheroids viability
# Assay: Anticancer human tumor 958667-338-R-J2-PDC patient-derived colon adenocarcinoma cell line growth inhibition [PI3K]
# Details: spheroids with HUVEC and MSC; for IC50: curve of first compound; for viability, T/C: stronger effect = lower value
# Method in brief: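 High-throughput combination screen: PI3K inhibitors crossed with targeted small molecules on complex spheroids of tumor cells, HUVEC and MSCs at 37 degrees C, 5% CO2. Top concentration was at or near clinical Cmax (otherwise 10 microM), with half-log decrements.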
# [1] = second compound 0.00316 µM, first compound 0.0316 µM
# [2] = second compound 0.00316 µM, first compound 0.1 µM
# [3] = second compound 0.00316 µM, first compound 0.316 µM
# [4] = second compound 0.00316 µM, first compound 1 µM
# [5] = second compound 0.00316 µM, first compound 3.16 µM
# [6] = second compound 0.00316 µM, first compound 10 µM
# [7] = second compound 0.01 µM, first compound 0.0316 µM
# [8] = second compound 0.01 µM, first compound 0.1 µM
# [9] = second compound 0.01 µM, first compound 0.316 µM
# [10] = second compound 0.01 µM, first compound 1 µM
# [11] = second compound 0.01 µM, first compound 3.16 µM
# [12] = second compound 0.01 µM, first compound 10 µM
# [13] = second compound 0.0316 µM, first compound 0.0316 µM
# [14] = second compound 0.0316 µM, first compound 0.1 µM
# [15] = second compound 0.0316 µM, first compound 0.316 µM
# [16] = second compound 0.0316 µM, first compound 1 µM
# [17] = second compound 0.0316 µM, first compound 3.16 µM
# [18] = second compound 0.0316 µM, first compound 10 µM
# [19] = second compound 0.1 µM, first compound 0.0316 µM
# [20] = second compound 0.1 µM, first compound 0.1 µM
# [21] = second compound 0.1 µM, first compound 0.316 µM
# [22] = second compound 0.1 µM, first compound 1 µM
# [23] = second compound 0.1 µM, first compound 3.16 µM
# [24] = second compound 0.1 µM, first compound 10 µM
# [25] = second compound 0.316 µM, first compound 0.0316 µM
# [26] = second compound 0.316 µM, first compound 0.1 µM
# [27] = second compound 0.316 µM, first compound 0.316 µM
# [28] = second compound 0.316 µM, first compound 1 µM
# [29] = second compound 0.316 µM, first compound 3.16 µM
# [30] = second compound 0.316 µM, first compound 10 µM
# [31] = second compound 1 µM, first compound 0.0316 µM
# [32] = second compound 1 µM, first compound 0.1 µM
# [33] = second compound 1 µM, first compound 0.316 µM
# [34] = second compound 1 µM, first compound 1 µM
# [35] = second compound 1 µM, first compound 3.16 µM
# [36] = second compound 1 µM, first compound 10 µM
# 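Also: spheroids exposed to compounds for seven days before readout.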
smiles,measurement,setting,value
CC1(C)CCC(CN2CCN(c3ccc(C(=O)NS(=O)(=O)c4ccc(NCC5CCOCC5)c([N+](=O)[O-])c4)c(Oc4cnc5[nH]ccc5c4)c3)CC2)=C(c2ccc(Cl)cc2)C1 + COc1c(OCCCN2CCOCC2)ccc2c3n(c(=NC(=O)c4cnc(N)nc4)nc12)CCN3,IC50,second compound 0.00316 µM,6.52 µM
same,IC50,second compound 0.01 µM,5.73 µM
same,IC50,second compound 0.0316 µM,5.21 µM
same,IC50,second compound 0.1 µM,3.76 µM
same,IC50,second compound 0.316 µM,< 0.0316 µM
same,IC50,second compound 1 µM,< 0.0316 µM
same,"viability, T/C",[1],76.5%
same,"viability, T/C",[2],96.3%
same,"viability, T/C",[3],80.3%
same,"viability, T/C",[4],98.8%
same,"viability, T/C",[5],103%
same,"viability, T/C",[6],25.6%
same,"viability, T/C",[7],71.8%
same,"viability, T/C",[8],85.9%
same,"viability, T/C",[9],72.5%
same,"viability, T/C",[10],76.6%
same,"viability, T/C",[11],75.8%
same,"viability, T/C",[12],25.9%
same,"viability, T/C",[13],77.6%
same,"viability, T/C",[14],66.2%
same,"viability, T/C",[15],61.6%
same,"viability, T/C",[16],69%
same,"viability, T/C",[17],80.6%
same,"viability, T/C",[18],22.6%
same,"viability, T/C",[19],58%
same,"viability, T/C",[20],53.4%
same,"viability, T/C",[21],48.8%
same,"viability, T/C",[22],53.9%
same,"viability, T/C",[23],69.6%
same,"viability, T/C",[24],11.9%
same,"viability, T/C",[25],45.8%
same,"viability, T/C",[26],42.3%
same,"viability, T/C",[27],33.9%
same,"viability, T/C",[28],33.5%
same,"viability, T/C",[29],32.5%
same,"viability, T/C",[30],4.13%
same,"viability, T/C",[31],19.7%
same,"viability, T/C",[32],15.1%
same,"viability, T/C",[33],19%
same,"viability, T/C",[34],21.9%
same,"viability, T/C",[35],18.2%
same,"viability, T/C",[36],2.25%
C[C@@H](NC(=O)c1ncnc(N)c1Cl)c1ncc(C(=O)Nc2cc(C(F)(F)F)c(Cl)cn2)s1 + COc1c(OCCCN2CCOCC2)ccc2c3n(c(=NC(=O)c4cnc(N)nc4)nc12)CCN3,IC50,second compound 0.00316 µM,> 10 µM
same,IC50,second compound 0.01 µM,> 10 µM
same,IC50,second compound 0.0316 µM,> 10 µM
same,IC50,second compound 0.1 µM,> 10 µM
same,IC50,second compound 0.316 µM,< 0.0316 µM
same,IC50,second compound 1 µM,< 0.0316 µM
same,"viability, T/C",[1],96.1%
same,"viability, T/C",[2],88.5%
same,"viability, T/C",[3],107%
same,"viability, T/C",[4],110%
same,"viability, T/C",[5],116%
same,"viability, T/C",[6],66.7%
same,"viability, T/C",[7],96.3%
same,"viability, T/C",[8],96.8%
same,"viability, T/C",[9],111%
same,"viability, T/C",[10],89.5%
same,"viability, T/C",[11],69.9%
same,"viability, T/C",[12],72.1%
same,"viability, T/C",[13],78.9%
same,"viability, T/C",[14],88.3%
same,"viability, T/C",[15],77.5%
same,"viability, T/C",[16],84.3%
same,"viability, T/C",[17],86.1%
same,"viability, T/C",[18],76.2%
same,"viability, T/C",[19],62.2%
same,"viability, T/C",[20],70.8%
same,"viability, T/C",[21],68.1%
same,"viability, T/C",[22],82.1%
same,"viability, T/C",[23],83.2%
same,"viability, T/C",[24],59.8%
same,"viability, T/C",[25],34.3%
same,"viability, T/C",[26],37.2%
same,"viability, T/C",[27],44.1%
same,"viability, T/C",[28],42%
same,"viability, T/C",[29],57.3%
same,"viability, T/C",[30],34.2%
same,"viability, T/C",[31],20.4%
same,"viability, T/C",[32],19.5%
same,"viability, T/C",[33],20.1%
same,"viability, T/C",[34],20.9%
same,"viability, T/C",[35],15.2%
same,"viability, T/C",[36],5.92%
Cn1ncnc1[C@H]1c2n[nH]c(=O)c3cc(F)cc(c23)N[C@@H]1c1ccc(F)cc1 + COc1c(OCCCN2CCOCC2)ccc2c3n(c(=NC(=O)c4cnc(N)nc4)nc12)CCN3,IC50,second compound 0.00316 µM,> 0.1 µM
same,IC50,second compound 0.01 µM,> 0.1 µM
same,IC50,second compound 0.0316 µM,> 0.1 µM
same,IC50,second compound 0.1 µM,> 0.1 µM
same,IC50,second compound 0.316 µM,< 0.000316 µM
same,IC50,second compound 1 µM,< 0.000316 µM
same,"viability, T/C","second compound 0.00316 µM, first compound 0.000316 µM",96.3%
same,"viability, T/C","second compound 0.00316 µM, first compound 0.001 µM",104%
same,"viability, T/C","second compound 0.00316 µM, first compound 0.00316 µM",93.6%
same,"viability, T/C","second compound 0.00316 µM, first compound 0.01 µM",102%
same,"viability, T/C",[1],87.8%
same,"viability, T/C",[2],75.8%
same,"viability, T/C","second compound 0.01 µM, first compound 0.000316 µM",76.3%
same,"viability, T/C","second compound 0.01 µM, first compound 0.001 µM",72.5%
same,"viability, T/C","second compound 0.01 µM, first compound 0.00316 µM",94.2%
same,"viability, T/C","second compound 0.01 µM, first compound 0.01 µM",90.7%
same,"viability, T/C",[7],80.5%
same,"viability, T/C",[8],87.3%
same,"viability, T/C","second compound 0.0316 µM, first compound 0.000316 µM",69.4%
same,"viability, T/C","second compound 0.0316 µM, first compound 0.001 µM",74.4%
same,"viability, T/C","second compound 0.0316 µM, first compound 0.00316 µM",98.4%
same,"viability, T/C","second compound 0.0316 µM, first compound 0.01 µM",79.2%
same,"viability, T/C",[13],79.8%
same,"viability, T/C",[14],61.9%
same,"viability, T/C","second compound 0.1 µM, first compound 0.000316 µM",62%
same,"viability, T/C","second compound 0.1 µM, first compound 0.001 µM",61.7%
same,"viability, T/C","second compound 0.1 µM, first compound 0.00316 µM",59.6%
same,"viability, T/C","second compound 0.1 µM, first compound 0.01 µM",66.8%
same,"viability, T/C",[19],57.3%
same,"viability, T/C",[20],56%
same,"viability, T/C","second compound 0.316 µM, first compound 0.000316 µM",37%
same,"viability, T/C","second compound 0.316 µM, first compound 0.001 µM",38%
same,"viability, T/C","second compound 0.316 µM, first compound 0.00316 µM",43.8%
same,"viability, T/C","second compound 0.316 µM, first compound 0.01 µM",46.1%
same,"viability, T/C",[25],34.9%
same,"viability, T/C",[26],34.9%
same,"viability, T/C","second compound 1 µM, first compound 0.000316 µM",19.7%
same,"viability, T/C","second compound 1 µM, first compound 0.001 µM",15.6%
same,"viability, T/C","second compound 1 µM, first compound 0.00316 µM",21.7%
same,"viability, T/C","second compound 1 µM, first compound 0.01 µM",21.1%
same,"viability, T/C",[31],22.5%
same,"viability, T/C",[32],14.9%
